Reference: US4025630A, “Anesthesia methods using benzopyrans and esters thereof as pre-anesthesia medication” (Abbott Laboratories, priority 1974, dated 1977)
Structures can show the parent of a compound that is named as a salt.

Legend:
[1] = Solubility in water of the product; settings: powder
[2] = Determination of the Anesthetic ED50 and the LD50 of Pentothal; format: in vivo, female Swiss-Webster mice; settings: mouse, in vivo; intravenous, mice, observed one week; read-out: LD50 (95% C.L.)
Procedure: (§1) An intravenous potency/lethality ratio for Pentothal was established in mice as follows
(§2) Determination of the Anesthetic ED50 and the LD50 of Pentothal
(§3) Groups of 10 female Swiss-Webster (A. R. Schmidt, Madison, Wisconsin) mice weighing between 16-25 grams were used for all studies. Intravenous injections were made into the tail veins. The drugs were prepared daily in Sterile Water (Abbott List No. 1590). […] LD50 's ED50 's, and their associated conficence limits were calculated by the method of Litchfield and Wilcoxon (1949).

mice [3] = test: as above; format: in vivo, female Swiss-Webster mice
Procedure: as §1, §2, §3

mice [4] = test: Activity of benzopyrans as adjuvants to halothane anesthesia (Carson-Domino method); format: in vivo; design: key: +: statistically significant increase; -: statistically significant decrease; NE: no effect; (): large but non-statistically significant change
Description: (§4) A modification of the method of Carson and Domino (Anesthesiology, 23:187-192, 1962) was used.
(§5) Groups of 10 female Swiss-Webster (A. R. Schmidt, Madison, Wisconsin) mice weighing between 16-24 grams were pre-treated with various doses or at various times with drug either oral or by intravenous injection of the tail veins. The mice were placed into 2 liter beakers (5 animals per beaker). The tops of the beakers were covered with Parafilm to which a gauze sponge had been attached. 0.1 cc of Penthrane or halothrane was injected through the Parafilm into the sponge at 5 minute intervals. […] These parameters were measured by the use of a stop watch. Statistical analysis (one-way analysis of variance) was done on the computer.
A number of benzopyran derivatives were screened in mice as adjuvants to the anesthetic actions of halothane. The Carson-Domino method (Anesthesiology 23:187, 1962) was used to measure anesthetic induction times and duration of anesthesia as evidenced by loss of righting reflex, as well as changes in the lethality of halothane.
Screening doses of 5 mg./kg. intravenously or 20 mg./kg. orally were used.

mice [5] = test: Interaction of Benzopyranopyridines with Pentothal (loss of righting reflex, sleep); format: in vivo, female Swiss-Webster mice
Procedure: as §3
Interaction of Benzopyranopyridines with Pentothal
1. Animals pretreated with SP-106, 1 mg./kg. intravenously 0-30 minutes prior to Pentothal, 10 mg./kg. […] Longer pretreatment times (60 to 120 minutes) had no effect.

mice [6] = test: Interaction of Benzopyranopyridines with Penthrane (modified Carson and Domino method); format: in vivo, female Swiss-Webster mice; settings: 1 to 5 mg./kg. 15 minutes prior to Penthrane vapors
Description: as §4, §5

mice [7] = test: Interaction of Benzopyranopyridines with Fluothane (halothane) (modified Carson and Domino method); format: in vivo, female Swiss-Webster mice; settings: 1 to 5 mg./kg. 15 minutes prior to halothane vapors
Description: as §4, §5

[8] = 20 mg/kg p.o., pretreatment time 1 hr
[9] = 20 mg/kg p.o., pretreatment time 2 hr
[10] = 20 mg/kg p.o., pretreatment time 3 hr
[11] = 20 mg/kg p.o., pretreatment time 4 hr
[12] = 5 mg/kg i.v., pretreatment time 15 minutes

In the case of `CC1CCC2=C(C1)c1c(OC(=O)CCCN3CCCCC3)cc(C(C)CCCc3ccc(F)cc3)cc1OC2(C)C` (centres unmarked) [Example 71], the solubility in water [1] is reported as “soluble in water”.
For `CCCC(C)C1(CC)C(=O)NC(=S)NC1=O` (centres unmarked) [Pentothal, sodium thiopental], the LD50 at 168 h [2] was 76 mg/kg, the ED50 (mice [3]; Mus musculus, intravenous, mice, loss of righting reflex, read-out: Anesthetic ED50 (95% C.L.)) was 20 mg/kg and the pH (mice [3]; Remarks: irritating (pH 11)) was 11. The “Remarks: duration” value (mice [3]; intravenous, mice) was “short duration”, the “Remarks: irritation” value (mice [3]; intravenous, mice) was “irritating” and the “Remarks: onset” value (mice [3]; intravenous, mice) was “Immediate onset”. For the same compound, the “Therapeutic Index” value (mice [3]; intravenous, mice) was ~ 4.
With `C#CCN1CCC2=C(C1)c1c(O)cc(C(C)C(C)CCCCC)cc1OC2(C)C` (centres unmarked) [SP-1] the Duration (mice [4]; [8]) was “+”, the Lethality (mice [4]; [8]) was “-” and the Onset (mice [4]; [8]) was “+”. For the same compound, the Duration (mice [4]; [9]) was “+”, the Lethality (mice [4]; [9]) was “NE” and the Onset (mice [4]; [9]) was “-”. For the same compound, the Duration (mice [4]; [10]) was “+”, the Lethality (mice [4]; [10]) was “NE” and the Onset (mice [4]; [10]) was “-”. The Duration (mice [4]; [11]) was “+”, the Lethality (mice [4]; [11]) was “NE” and the Onset (mice [4]; [11]) was “-”.
In the case of `CCCCCC(C)C(C)c1cc(OC(=O)CCCN2CCCCC2)c2c(c1)OC(C)(C)C1=C2CCC1` (centres unmarked) [SP-102], the Duration (mice [4]; [12]) is reported as “+”, the Lethality (mice [4]; [12]) is reported as “NE” and the Onset (mice [4]; [12]) is reported as “+”.
In the case of `C#CCN1CCC2=C(C1)c1c(OC(=O)CCCN3CCCCC3)cc(C(C)C(C)CCCCC)cc1OC2(C)C.Cl` (centres unmarked) [SP-106, 5,5-Dimethyl-8-(3-methyl-2-octyl)-10-[4-(piperidino)butyryloxy]-2-(2-propynyl)-1,2,3,4-tetrahydro-5H-[1]benzopyrano[3,4-d]pyridine hydrochloride], the peak effect (mice [5]; 1 mg./kg. intravenously 0-30 minutes prior to Pentothal 10 mg./kg.) is reported as 5 min, the “anesthesia (loss of righting reflex)” value (mice [5]; 1 mg./kg. intravenously 0-30 minutes prior to Pentothal 10 mg./kg. (non-anesthetic dose)) is reported as “produced anesthesia” and the sleep duration (mice [5]; 1 and 5 mg./kg. intravenously 15 minutes prior to anesthetic dose (30 mg./kg.) of Pentothal) is reported as “significantly lengthened the sleep”. The “effect at longer pretreatment times” value (mice [5]; 60 to 120 minutes pretreatment, 1 mg./kg. intravenously, Pentothal 10 mg./kg.) was “had no effect”, the duration of anesthesia (mice [6]) was “significantly lengthened the duration of anesthesia” and the onset to sleep (mice [6]) was “signficantly shortened onset to sleep”. The time to death (mice [6]) was “had no effect or lengthened time to death”, the Onset (mice [7]) was “reduction of onset” and the duration of anesthesia (mice [7]) was “increased the duration of anesthesia”. The time to death (mice [7]) was “increased”, the Duration (mice [4]; [12]) was “+” and the Lethality (mice [4]; [12]) was “-”. The Onset (mice [4]; [12]) was “-”.
With `CCCCCc1cc(OC(=O)CCCN2CCOCC2)c2c(c1)OC(C)(C)C1CCC(C)=CC21` (centres unmarked) [SP-111] the Duration (mice [4]; [12]) was “+”, the Lethality (mice [4]; [12]) was “NE” and the Onset (mice [4]; [12]) was “-”.
With `C#CCN1CCC2=C(C1)c1c(OC(=O)CCCN3CCOCC3)cc(C(C)C(C)CCCCC)cc1OC2(C)C.Cl` (centres unmarked) [SP-112, 5,5-Dimethyl-10-[4-(morpholino)butyryloxy]-8-(3-methyl-2-octyl)-2-(2-propynyl)-1,2,3,4-tetrahydro-5H-[1]-benzopyrano [3,4-d] pyridine hydrochloride] the Duration (mice [4]; [12]) was “+”, the Lethality (mice [4]; [12]) was “NE” and the Onset (mice [4]; [12]) was “-”.
For `CCCCCC(C)C(C)c1cc(OC(=O)CCCN2CCCCC2)c2c(c1)OC(C)(C)C1=C2CCCS1` (centres unmarked) [SP-117], the Lethality (mice [4]; [12]) was “NE” and the Onset (mice [4]; [12]) was “+”.
In the case of `C#CCN1CCC2=C(C1)c1c(OC(=O)CCCN3CCCCC3C)cc(C(C)C(C)CCCCC)cc1OC2(C)C` (centres unmarked) [SP-159, 5,5-Dimethyl-10-[4-(2-methylpiperidino)butyryloxy]-8-(3-methyl-2-octyl)-2-(2-propynyl)-1,2,3,4-tetrahydro-5H-[1]benzopyrano [3,4-d] pyridine hydrochloride], the Duration (mice [4]; [12]) is reported as “+”, the Lethality (mice [4]; [12]) is reported as “NE” and the Onset (mice [4]; [12]) is reported as “-”.
For `C#CCN1CCC2=C(C1)c1c(OC(=O)C(C)CCN3CCCCC3)cc(C(C)C(C)CCCCC)cc1OC2(C)C` (centres unmarked) [SP-178, 5,5-Dimethyl-10-[2-methyl-4-(piperidino)butyryloxy]-8-(3-methyl-2-octyl)-2-(2-propynyl)-1,2,3,4-tetrahydro-5H-[1]benzopyrano[3,4-d] pyridine dihydrochloride], the Duration (mice [4]; [12]) was “+”, the Lethality (mice [4]; [12]) was “NE” and the Onset (mice [4]; [12]) was “-”.
With `C#CCN1CCC2=C(C1)c1c(OC(=O)C(C)CCN3CCCCC3C)cc(C(C)C(C)CCCCC)cc1OC2(C)C` (centres unmarked) [SP-204] the Duration (mice [4]; [12]) was “+”, the Lethality (mice [4]; [12]) was “-” and the Onset (mice [4]; [12]) was “-”.
For `C#CCN1CCC2=C(C1)c1c(OC(=O)CCCN3CCCCC3)cc(C(C)CCCc3ccc(F)cc3)cc1OC2(C)C` (centres unmarked) [SPA-109], the Duration (mice [4]; [12]) was “+”, the Lethality (mice [4]; [12]) was “NE” and the Onset (mice [4]; [12]) was “-”.
